The results in this text go back to patent publication US11608319B2, “Beta-amino acid derivative, kinase inhibitor and pharmaceutical composition containing the same, and method for performing an in vivo related application that benefits from the inhibition of a kinase” (Industrial Technology Research Institute, priority 2019, dated 2023).

For one experiment, the target named is ROCK1 (Homo sapiens (Human), UniProt Q13464). In words: biochemical.
For another experiment, the target named is MYLK4 (Homo sapiens (Human), UniProt Q86YV6). The experiment in a line: Assay for inhibitory effect on MYLK-4, LanthaScreen Eu Kinase Binding Assay. Background: Time-resolved FRET reads energy transfer from a long-lived donor to a nearby acceptor.
The target in another experiment is YSK4 (Homo sapiens (Human), UniProt Q56UN5). In words: Assay for inhibitory effect on YSK-4, Z'-LYTE kinase assay. Particulars: ATP 5 μM. It is filed as biochemical. As to the method:
C. Assay for Inhibitory Effect on YSK-4
The experimental procedure referred to the Z′-LYTE Screening Protocol and Assay Conditions provided by ThermoFisher Scientific.
C-1. Material Preparation
Peptide/Kinase Mixture was pre-diluted with Kinase Buffer to 2× working concentration.
ATP solution was pre-diluted with Kinase Buffer (50 mM HEPES pH 7.5, 0.01% BRIJ-35, 10 mM MgCl2, 1 mM EGTA) to 4× working concentration.
The development reagent solution is Novel PKC Lipid Mix, which contains 2 mg/mL Phosphatidyl Serine, 0.2 mg/mL DAG in 20 mM HEPES, pH 7.4 and 0.3% CHAPS, and was pre-diluted 10 fold with development buffer.
1. 100 nL of the above diluted test compound and 2.4 μL of kinase buffer were added to a black 384-well plate (Corning, Cat. NO. 4514), then add 5 μL of the peptide/kinase mixture mentioned above was added thereto, and after that 2.5 μL of ATP solution was added thereto, and the culture plate was shaken for 30 seconds.
2. Next, the culture plate was placed at room temperature and incubated for 60 minutes.
3. After that 5 μL of the development reagent solution was added and the culture plate was shaken for 30 seconds in the dark, and then the data was read and analyzed with a fluorescence plate reader.
In addition, for the kinase, the following control group was prepared and placed on the same culture plate as the kinase:
(1) 0% Phosphorylation Control (100% Inhibition Control)
This control yields 100% cleaved peptide in the Development Reaction.
(2) 100% Phosphorylation Control
A synthetically phosphorylated peptide of the same sequence as the peptide substrate is used as the 100% Phosphorylation Control.
The Phosphorylation percent achieved in a specific reaction well (Experimental group) was calculated based on the 0% Phosphorylation Control and 100% Phosphorylation Control.

Experiment [1] deals with rabbit eyes with normal intraocular pressure. The experiment in a line: Evaluation of the effect of decreasing intraocular pressure in a model of rabbit with normal intraocular pressure. Type of experiment: in vivo, New Zealand white rabbit. Particulars: for Intraocular pressure difference (mmHg): at time point of maximum effect. On the procedure:
Evaluation of the Effect of Decreasing Intraocular Pressure in a Model of Rabbit with Normal Intraocular Pressure
Experimental animal: New Zealand white rabbit, male, weighing more than 2 kg. New Zealand white rabbits were purchased from Huijun Farm (Changhua, Taiwan). After a one-week quarantine period, they were raised in MASTER LABORATORY Co., Ltd under the environmental conditions of 16-22° C., 30-70% relative humidity (RH), 8 hours day/16 hours night.
(1) Evaluation of the Effect of Reducing Intraocular Pressure
After weighing 12 New Zealand white rabbits (2.0-4.0 kg) and grouping them (n=3-6 in each group), the white rabbits were fixed with a wrap.

Experiment [2] shares this test system. The note with it: eye drop concentration.
Description: The maximal effect (Emax) dose evaluation of the intraocular pressure reduction model in normal rabbit
Animals: Male New Zealand white rabbits (n=7/each group);
Administration: 50 μL of the test compound was instilled in the right eye (dosed eye) and 50 μL of the vehicle (without the test compound) in the left eye (control eye) of each experimental animal. The 3 formulation mentioned above were administered once a day for 3 consecutive days.
The intraocular pressure of each animal was measured by Tono-Vet (iCare) before administration (0 hours) and 2, 4, 6 and 8 hours after administration on Day 1 and Day 3.
The maximum magnitude of the reduction in intraocular pressure %=(Intraocular pressure of the control eye−Intraocular pressure of the dosed eye)/Intraocular pressure of the control eye*100
The data presented in this experiment is the data that has removed the unqualified data (white rabbits with an intraocular pressure difference ≥2 mmHg (n=1) in the two eyes on Day 1 and >5 mmHg in the two eyes before the administration on the Day 3 (n=1) have been removed) and removed the rebound high intraocular pressure (n=3).

A word on the IC50: it is the concentration at which inhibition is half-maximal.

Molecules are shown by their SMILES. Structures can show the parent of a compound that is named as a salt. Where two headings read alike, the source gives them in different places. Where only a bound is given, the exact number is not on record here.

MYLK4, sequence (Q86YV6 whole entry): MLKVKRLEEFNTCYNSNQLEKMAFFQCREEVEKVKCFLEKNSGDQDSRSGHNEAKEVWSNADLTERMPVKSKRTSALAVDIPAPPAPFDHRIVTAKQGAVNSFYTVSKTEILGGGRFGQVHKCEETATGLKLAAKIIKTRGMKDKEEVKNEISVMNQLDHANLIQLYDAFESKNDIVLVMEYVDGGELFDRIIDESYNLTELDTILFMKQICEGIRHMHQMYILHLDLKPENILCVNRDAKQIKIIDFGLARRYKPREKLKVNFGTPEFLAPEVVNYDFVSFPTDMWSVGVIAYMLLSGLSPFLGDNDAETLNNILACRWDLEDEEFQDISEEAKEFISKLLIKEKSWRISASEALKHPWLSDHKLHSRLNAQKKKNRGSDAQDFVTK
YSK4, sequence (Q56UN5 whole entry): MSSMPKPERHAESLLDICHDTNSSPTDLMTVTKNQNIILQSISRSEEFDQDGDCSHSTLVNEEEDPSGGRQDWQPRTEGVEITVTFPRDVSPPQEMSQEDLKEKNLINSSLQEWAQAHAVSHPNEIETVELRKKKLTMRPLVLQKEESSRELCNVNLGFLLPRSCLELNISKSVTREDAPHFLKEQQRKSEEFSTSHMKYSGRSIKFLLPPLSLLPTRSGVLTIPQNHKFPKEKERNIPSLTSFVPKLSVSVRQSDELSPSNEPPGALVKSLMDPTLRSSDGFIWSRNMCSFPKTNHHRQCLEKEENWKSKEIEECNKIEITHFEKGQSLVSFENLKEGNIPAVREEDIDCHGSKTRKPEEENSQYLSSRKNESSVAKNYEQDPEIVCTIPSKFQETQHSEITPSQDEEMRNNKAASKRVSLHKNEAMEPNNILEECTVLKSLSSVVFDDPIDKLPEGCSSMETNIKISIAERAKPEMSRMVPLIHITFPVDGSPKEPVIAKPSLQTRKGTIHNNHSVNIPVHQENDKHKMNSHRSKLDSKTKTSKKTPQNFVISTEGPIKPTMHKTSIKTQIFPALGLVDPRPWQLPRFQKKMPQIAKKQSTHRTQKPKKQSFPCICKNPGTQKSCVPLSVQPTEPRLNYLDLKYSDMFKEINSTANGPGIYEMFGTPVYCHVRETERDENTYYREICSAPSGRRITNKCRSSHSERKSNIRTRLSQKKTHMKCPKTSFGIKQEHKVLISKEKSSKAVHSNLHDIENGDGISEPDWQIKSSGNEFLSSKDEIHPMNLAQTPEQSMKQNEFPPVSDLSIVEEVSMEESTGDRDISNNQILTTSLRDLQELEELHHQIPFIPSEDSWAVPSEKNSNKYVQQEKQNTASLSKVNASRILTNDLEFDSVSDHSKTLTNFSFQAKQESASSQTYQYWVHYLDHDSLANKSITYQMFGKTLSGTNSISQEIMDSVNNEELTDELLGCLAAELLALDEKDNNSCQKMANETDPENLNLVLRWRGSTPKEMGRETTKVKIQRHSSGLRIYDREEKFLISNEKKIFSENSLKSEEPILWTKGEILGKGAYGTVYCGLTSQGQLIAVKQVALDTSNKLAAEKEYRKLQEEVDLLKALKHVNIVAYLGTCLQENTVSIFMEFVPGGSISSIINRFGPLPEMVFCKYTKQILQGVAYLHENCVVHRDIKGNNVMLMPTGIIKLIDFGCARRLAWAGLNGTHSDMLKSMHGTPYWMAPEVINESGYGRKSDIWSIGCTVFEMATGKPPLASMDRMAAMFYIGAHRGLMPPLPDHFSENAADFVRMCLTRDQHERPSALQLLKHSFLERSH
ROCK1, sequence (Q13464 whole entry, species assumed): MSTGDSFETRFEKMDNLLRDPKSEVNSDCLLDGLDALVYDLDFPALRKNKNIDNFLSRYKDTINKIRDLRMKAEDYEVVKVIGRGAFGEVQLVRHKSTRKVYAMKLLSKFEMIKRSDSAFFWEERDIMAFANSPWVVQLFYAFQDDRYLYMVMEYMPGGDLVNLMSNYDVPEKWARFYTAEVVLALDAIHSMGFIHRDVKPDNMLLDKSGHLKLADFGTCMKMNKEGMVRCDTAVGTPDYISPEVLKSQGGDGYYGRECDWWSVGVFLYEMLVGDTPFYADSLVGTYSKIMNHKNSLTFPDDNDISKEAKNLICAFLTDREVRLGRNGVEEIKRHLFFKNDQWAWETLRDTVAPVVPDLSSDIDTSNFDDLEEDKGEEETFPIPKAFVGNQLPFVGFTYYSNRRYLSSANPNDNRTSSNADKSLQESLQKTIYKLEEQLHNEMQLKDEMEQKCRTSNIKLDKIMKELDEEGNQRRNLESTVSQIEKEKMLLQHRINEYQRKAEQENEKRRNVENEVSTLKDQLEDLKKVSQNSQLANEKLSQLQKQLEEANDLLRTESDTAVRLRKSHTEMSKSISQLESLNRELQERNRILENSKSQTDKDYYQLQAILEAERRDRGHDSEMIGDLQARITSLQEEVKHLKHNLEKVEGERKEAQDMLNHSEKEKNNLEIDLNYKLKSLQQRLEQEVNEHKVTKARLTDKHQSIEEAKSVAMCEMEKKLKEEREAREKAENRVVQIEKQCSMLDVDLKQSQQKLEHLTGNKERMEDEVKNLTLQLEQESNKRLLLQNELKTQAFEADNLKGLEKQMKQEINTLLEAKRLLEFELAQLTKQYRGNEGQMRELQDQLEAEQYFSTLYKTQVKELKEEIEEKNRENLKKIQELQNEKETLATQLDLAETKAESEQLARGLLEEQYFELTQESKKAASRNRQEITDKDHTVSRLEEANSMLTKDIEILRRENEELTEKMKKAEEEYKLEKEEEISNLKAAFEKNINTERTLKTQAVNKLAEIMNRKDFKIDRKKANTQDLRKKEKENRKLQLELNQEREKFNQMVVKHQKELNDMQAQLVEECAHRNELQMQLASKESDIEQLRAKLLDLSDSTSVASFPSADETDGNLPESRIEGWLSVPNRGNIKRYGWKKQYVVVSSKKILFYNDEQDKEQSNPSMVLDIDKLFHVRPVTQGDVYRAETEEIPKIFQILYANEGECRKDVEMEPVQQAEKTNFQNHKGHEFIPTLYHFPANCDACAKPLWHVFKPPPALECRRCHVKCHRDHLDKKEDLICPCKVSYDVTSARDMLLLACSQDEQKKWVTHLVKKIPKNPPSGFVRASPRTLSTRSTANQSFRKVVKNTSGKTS

In the case of `NCC(C(=O)Nc1ccc(-c2cn[nH]c2)cc1)c1ccc(C=O)cc1` (centres unmarked) [Compound 13, N-(4-(1H-pyrazol-4-yl)phenyl)-3-amino-2-(4-formylphenyl)propanamide dihydrochloride], the values for the IC50 at ROCK1 (read-out: ROCK1 IC50), at MYLK4 and against YSK4 were less than 1 nM, 100 to 1000 nM and more than 1000 nM, respectively.
With `NCC(OCc1ccccc1)C(=O)Nc1ccc(-c2cn[nH]c2)cc1` (centres unmarked) [Compound 6, N-(4-(1H-pyrazol-4-yl)phenyl)-3-amino-2-(benzyloxy) propanamidedihydrochloride], the IC50 is 10 to 100 nM against ROCK1, 100 to 1000 nM at MYLK4 and more than 10000 nM on YSK4.
`[N-]=[N+]=NC(CN)C(=O)Nc1ccc(-c2cn[nH]c2)cc1` (centres unmarked) [Compound 1, N-(4-(1H-pyrazol-4-yl)phenyl)-3-amino-2-azidopropanamide dihydrochloride]: the IC50 is 100 to 1000 nM against ROCK1, 100 to 1000 nM on MYLK4 and more than 10000 nM against YSK4.
Regarding `NCC(C(=O)Nc1ccc(-c2cn[nH]c2)cc1)n1cc(-c2ccccc2)nn1` (centres unmarked) [Compound 2, dihydrochloride], the IC50 on ROCK1 was 10 to 100 nM; on MYLK4, 100 to 1000 nM; on YSK4, more than 10000 nM.
For `NCC(C(=O)Nc1ccc(-c2cn[nH]c2)cc1F)c1ccccc1` (centres unmarked) [Compound 19, 3-amino-N-(2-fluoro-4-(1H-pyrazol-4-yl)phenyl)-2-phenylpropanamide dihydrochloride] the same measures were 10 to 100 nM, 100 to 1000 nM and more than 1000 nM.
Regarding `NCC(C(=S)Nc1ccc(-c2cn[nH]c2)cc1)c1ccccc1` (centres unmarked) [Compound 14, N-(4-(1H-pyrazol-4-yl)phenyl)-3-amino-2-phenylpropanethioamide dihydrochloride], the IC50 on ROCK1 was 1 to 10 nM; at MYLK4 it was 100 to 1000 nM; against YSK4, more than 1000 nM. Moreover, the “time point at which maximum effect is achieved” value (“time point” below) in experiment [1] (dose 0.5%) was determined as 6 h. Also, the “Intraocular pressure difference (mmHg)” value in experiment [1] (dose 0.5%) was 2.5 mmHg. In addition, the “maximum effect (Emax) dose in the normal intraocular pressure rabbit model” value (from here on “maximum effect (Emax) dose”) in experiment [2] was 0.5%.
`NC[C@H](C(=O)Nc1ccc(-c2cn[nH]c2)cc1)c1ccccc1` [Compound 21, (R)—N-(4-(1H-pyrazol-4-yl)phenyl)-3-amino-2-phenylpropanamide dihydrochloride]: the IC50 against ROCK1 and at MYLK4 was 100 to 1000 nM throughout. The “time point” value in experiment [1] (dose 0.03%) came to 8 h. In addition, in experiment [1] (dose 0.03%), the “Intraocular pressure difference (mmHg)” value stood at 1.3 mmHg.
The molecule `NCC(C(=O)Nc1ccc(-c2cn[nH]c2)cc1)c1ccc(CO)cc1` (centres unmarked) [Compound 11, N-(4-(1H-pyrazol-4-yl)phenyl)-3-amino-2-(4-(hydroxymethyl)phenyl)propenamide dihydrochloride] displayed an IC50 at ROCK1 of 1 to 10 nM. This molecule also gave a 50% inhibitory concentration (IC50) on MYLK4 of 100 to 1000 nM. In addition, in experiment [1] (dose 0.5%), the “time point” value amounted to 1 h and the “Intraocular pressure difference (mmHg)” value is 2.0 mmHg. In addition, the “maximum effect (Emax) dose” value in experiment [2] is 0.5%.
In the case of `NCC(NC(=S)Nc1ccc(-c2cn[nH]c2)cc1)c1ccccc1` (centres unmarked) [Compound 15, 1-(4-(1H-pyrazol-4-yl)phenyl)-3-(2-amino-1-phenylethyl)thiourea dihydrochloride], the results for the IC50 on ROCK1, at MYLK4 and against YSK4 were 100 to 1000 nM, 100 to 1000 nM and more than 10000 nM, respectively.
Turning to `NCCN(Cc1ccc(F)cc1)C(=O)c1ccc(-c2cn[nH]c2)cc1` [Compound 17, N-(2-aminoethyl)-N-(4-fluorobenzyl)-4-(1H-pyrazol-4-yl)benzamide dihydrochloride], the 50% inhibitory concentration (IC50) is 100 to 1000 nM against ROCK1, more than 10000 nM on MYLK4 and more than 10000 nM against YSK4.
At ROCK1, `NCC(Oc1ccccc1)C(=O)Nc1ccc(-c2cn[nH]c2)cc1` (centres unmarked) [Compound 4, N-(4-(1H-pyrazol-4-yl)phenyl)-3-amino-2-phenoxypropanamide dihydrochloride] yielded a half-maximal inhibitory concentration (IC50) of 1 to 10 nM. In experiment [1] (dose 1%), the “time point” value turned out to be 2 h and the “Intraocular pressure difference (mmHg)” value was found to be 4.2 mmHg. The “maximum effect (Emax) dose” value in experiment [2] turned out to be 1%.
Turning to `NC[C@@H](C(=O)Nc1ccc2cnccc2c1)c1ccc(CO)cc1` [AR-13503, reference compound], the IC50 on ROCK1 (read-out: ROCK1 IC50) is less than 1 nM; at MYLK4, 100 to 1000 nM.
Turning to `NCC(C(=O)Nc1ccc(-c2cn[nH]c2)cc1)c1ccc(F)cc1` (centres unmarked) [Compound 8, N-(4-(1H-pyrazol-4-yl)phenyl)-3-amino-2-(4-fluorophenyl) propanamide dihydrochloride], the half-maximal inhibitory concentration (IC50) against ROCK1 is 1 to 10 nM; on MYLK4, 10 to 100 nM; at YSK4 it was more than 1000 nM. In addition, in experiment [1] (dose 1%), the “time point” value came to 6 h. Moreover, in experiment [1] (dose 1%), the “Intraocular pressure difference (mmHg)” value amounted to 5.2 mmHg. For the same molecule, the “maximum effect (Emax) dose” value in experiment [2] stood at 1%.
Take `NCC(C(=O)Nc1ccc(Oc2cn[nH]c2)cc1)c1ccccc1` (centres unmarked) [Compound 18, N-(4-((1H-pyrazol-4-yl)oxy)phenyl)-3-amino-2-phenylpropanamide dihydrochloride]: the IC50 at ROCK1 (read-out: ROCK1 IC50) was more than 10000 nM.
In the case of `NCC(Oc1ccc(C(F)(F)F)cc1)C(=O)Nc1ccc(-c2cn[nH]c2)cc1` (centres unmarked) [Compound 5, N-(4-(1H-pyrazol-4-yl)phenyl)-3-amino-2-(4-(trifluoromethyl)phenoxy)propenamide dihydrochloride], the IC50 against ROCK1 was in the range of 1 to 10 nM; at MYLK4 it was 100 to 1000 nM. Besides, in experiment [1] (dose 1%), the “time point” value came out at 6 h. For the same molecule, in experiment [1] (dose 1%), the “Intraocular pressure difference (mmHg)” value is 1.5 mmHg. For the same molecule, the “maximum effect (Emax) dose” value in experiment [2] is 1%.
Consider `NCC(C(=O)Nc1ccc(-c2cn[nH]c2)cc1)c1ccc(O)cc1` (centres unmarked) [Compound 9, N-(4-(1H-pyrazol-4-yl)phenyl)-3-amino-2-(4-hydroxyphenyl) propanamide dihydrochloride], for which, on ROCK1, the IC50 lay within 1 to 10 nM.
With `N#C/N=C(/NCc1ccccc1)Nc1ccc(-c2cn[nH]c2)cc1` [Compound 16, 1-(4-(1H-pyrazol-4-yl)phenyl)-3-benzyl-2-cyanoguanidine hydrochloride], the IC50 on ROCK1 (read-out: ROCK1 IC50), on MYLK4 and on YSK4 was more than 10000 nM in each case.
As to `Cc1ccc(C(=O)OCc2ccc(C(CN)C(=O)Nc3ccc(-c4cn[nH]c4)cc3)cc2)c(C)c1` (centres unmarked) [Compound 12, 4-(1-((4-(1H-pyrazol-4-yl)phenyl)amino)-3-amino-1-oxopropan-2-yl) benzyl 2,4-dimethylbenzoate dihydrochloride], the IC50 against ROCK1 was 10 to 100 nM; at MYLK4, 100 to 1000 nM; on YSK4, more than 1000 nM. For the same molecule, the “time point” value in experiment [1] (dose 0.25%) was 6 h. Moreover, the “Intraocular pressure difference (mmHg)” value in experiment [1] (dose 0.25%) came out at 2.0 mmHg. Further, the “maximum effect (Emax) dose” value in experiment [2] worked out at 0.25%.
Molecule `NCC(O)C(=O)Nc1ccc(-c2cn[nH]c2)cc1` (centres unmarked) [Compound 3, N-(4-(1H-pyrazol-4-yl)phenyl)-3-amino-2-hydroxypropanamide dihydrochloride] returned an IC50 at ROCK1 of 100 to 1000 nM.
With `Cc1ccc(C(=O)Oc2ccc(C(CN)C(=O)Nc3ccc(-c4cn[nH]c4)cc3)cc2)c(C)c1` (centres unmarked) [Compound 10, 4-(1-((4-(1H-pyrazol-4-yl)phenyl)amino)-3-amino-1-oxopropan-2-yl)phenyl 2,4-dimethylbenzoate dihydrochloride], the IC50 on ROCK1 was 100 to 1000 nM; at MYLK4, more than 1000 nM; at YSK4, more than 10000 nM.
